Results taken from patent US8084596B2, “Regulated apoptosis” (The Board of Trustees of the Leland Stanford Junior …, priority 1993, dated 2011).

Legend:
MZF3E [1] = molecular target: T1, MZF3E (Mus musculus, UniProt P24161); test: NFAT-SEAP reporter via myristoylated chimeric CD3/FKBP12 (MZF3E) receptor in Jurkat T cells; assay type: cell-based, human
T1 construct: expressed in transfected cells

NFAT = NFAT reporter (secreted alkaline phosphatase) after cross-linking chimeric receptor TAC/TAC/Z with anti-TAC mAb in TAg Jurkat cells; assay type: cell-based, human; conditions: addition of 1 ng/ml FK506; TTZ receptor, bound anti-TAC mAb
Excerpt: The plasmid pSXNeo/IL2 (IL2-SX) (FIG. 1), which contains the placental secreted alkaline phosphatase gene under the control of human IL-2 promoter (−325 to +47; MCB(86) 6, 3042), and related plasmid variants (i.e. NFAT-SX, NF B-SX, OAP/Oct1-SX, and AP-1-SX) in which the reporter gene is under the transcriptional control of the minimal IL-2 promoter (−325 to −294 and -72 to −47) combined with synthetic oligomers containing various promoter elements (i.e. NFAT, NKB, OAP/Oct-1, and AP1, respectively), were made by three piece ligations of 1) pPL/SEAP (Berger, et al., Gene (1988) 66, 1) cut with SspI and HindIII; 2) pSV2/Neo (Southern and Berg, J. Mol. Appl. Genet. (1982) 1, 332) cut with NdeI, blunted with Klenow, then cut with Pvul; and 3) various promoter-containing plasmids (i.e. NFAT-CD8, B-CD8, cx121acZ-Oct-1, AP1-LUCIF3H, or cx151L2) described below) cut with PvuI and HindIII, NFAT-CD8 contains 3 copies of the NFAT-binding site (−286 to […]; Genes and Dev. (1990) 4, 1823) and cx12lacZ-Oct contains 4 copies of the OAP/Oct-1(ARRE-1) binding site (MCB, (1988) 8, 1715) from the human IL-2 enhancer; B-CD8 contains 3 copies of the NFB binding site from the murine light chain (EMBO (1990) 9, 4425) and AP1-LUCIF3H contains 5 copies of the AP-1 site (5′-TGA-[…]-3′ [SEQ ID NO:3]) from the metallothionen promoter. […]

[2] = Immunosuppression / toxicity in cell culture; assay type: cell-based
[3] = tested on: GF2E or GF3E with NF3V1E (G5E4TCAT reporter); test: Transcriptional induction: CAT activity in Jurkat TAg cells transfected with GAL4-FKBP and FKBP-VP16 chimeras; assay type: cell-based, human; conditions: 1 μM ligand, 12 hours; samples 5 (GF2E, NF3V1E) and 6 (GF3E, NF3V1E) in the presence of ligand
Description: Jurkat TAg cells were transfected with the indicated constructs (5 μg of each construct) by electroporation (960 μF, 250 v). After 24 hours, the cells were resuspended in fresh media and aliquoted. […] After 12 hours, the cells were washed and cellular extracts were prepared by repeated freeze-thaw. Chloramphenicol acetyltransferase (CAT) activity was measured by standard protocols. Molecular Cloning: A Laboratory Manual, Sambrook et al. eds. (1989) CSH Laboratory, pp. 16-59 ff. […]

MZF3Eflu / MZF3Eflag = test: Coimmunoprecipitation of epitope-tagged chimeras (anti-Flag agarose) in Jurkat T cells; assay type: cell-based, human
MZF3E [4] = molecular target: T1, MZF3E; test: Protein-tyrosine phosphorylation and kinase recruitment in Jurkat cells stably transfected with MZF3E; assay type: cell-based, human
Description: Tyrosine phosphorylation after treatment of cells with either anti-CD3 MAb or FK1012 was detected using monoclonal alpha-phosphotyrosine antibodies. Whole cell lysates were analysed at varying times after stimulation.

TAg-Jurkat cells = test: Inhibitory activity of drugs on ionomycin/PMA-stimulated TAg-Jurkat cells (β-galactosidase, MUG fluorescence); assay type: cell-based, human
Description: Ionomycin (1 μm) and PMA (25 ng/ml) were added to 10^5 TAg-Jurkat cells. In addition, titrations of the various drugs were added. After 5 hours the cells were lysed in mild detergent (i.e. Triton X-100) and the extracts were incubated with the β-galactosidase substrate, MUG (methyl galactosidyl umbelliferone) for 1 hour. A glycine/EDTA stop buffer was added and the extracts assayed for fluorescence. Each data point obtained was the average of two samples and the experiment was performed several times with similar results.

T1 sequence (P24161 with tags, fused parts or gaps limits assumed): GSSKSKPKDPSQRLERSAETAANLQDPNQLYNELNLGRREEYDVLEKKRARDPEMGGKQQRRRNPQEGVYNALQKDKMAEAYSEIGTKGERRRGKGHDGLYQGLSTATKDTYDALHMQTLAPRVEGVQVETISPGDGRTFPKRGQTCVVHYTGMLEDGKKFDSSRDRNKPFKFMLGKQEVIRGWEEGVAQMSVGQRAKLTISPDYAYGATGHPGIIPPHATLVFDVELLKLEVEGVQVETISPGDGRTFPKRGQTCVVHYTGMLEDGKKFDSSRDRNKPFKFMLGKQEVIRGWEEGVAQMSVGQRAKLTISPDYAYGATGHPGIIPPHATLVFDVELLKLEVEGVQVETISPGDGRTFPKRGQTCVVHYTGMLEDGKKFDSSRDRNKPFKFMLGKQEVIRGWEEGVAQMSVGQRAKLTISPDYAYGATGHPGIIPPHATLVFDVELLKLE
Sequence of MZF3Eflu / MZF3Eflag (P62942 2-108 limits assumed): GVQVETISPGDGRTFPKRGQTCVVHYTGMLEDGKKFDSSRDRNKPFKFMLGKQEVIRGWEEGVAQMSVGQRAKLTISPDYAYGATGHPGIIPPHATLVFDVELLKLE
Sequence of GF2E or GF3E with NF3V1E (G5E4TCAT reporter) (P62942 2-108 limits assumed): as above

## C=CC[C@@H]1/C=C(\C)C[C@H](C)C[C@H](OC)[C@H]2O[C@@](O)(C(=O)C(=O)N3CCCC[C@H]3C(=O)O[C@H](/C(C)=C/[C@@H]3CC[C@@H](O)[C@H](OC)C3)[C@H](C)[C@@H](O)CC1=O)[C@H](C)C[C@@H]2OC [FK506, reference compound]
MZF3E [1]; addition of 1 ng/ml FK506
  FK1012B stimulation of NFAT reporter: dropped all stimulations to near background levels
NFAT
  alkaline phosphatase reporter activity due to NFAT: dropped all activity due to NFAT to background levels

## CO[C@H]1C[C@@H](C)C/C(C)=C/[C@@H](CCOC(=O)NCc2ccccc2)C(=O)C[C@H](O)[C@@H](C)[C@@H](/C(C)=C/[C@@H]2CC[C@@H](O)[C@H](OC)C2)OC(=O)[C@@H]2CCCCN2C(=O)C(=O)[C@]2(O)O[C@H]1[C@@H](OC)C[C@H]2C [FK506-M]
[2]
  toxicity: nontoxic
MZF3E [1]
  termination of FK1012-induced signaling (deaggregation): FK1012-induced signaling can be terminated

## FK1012-A (p-xylylenediamine bridge) [FK1012A]
[3]
  CAT activity: CAT activity present as expected
MZF3Eflu / MZF3Eflag
  dimerization of FKBP monomer constructs MZF1Eflu and MZF1Eflag: also dimerized by FK1012A
MZF3Eflu / MZF3Eflag; 1 μM, Jurkat T cells coexpressing both chimeras
  coimmunoprecipitation of MZF3Eflu with MZF3Eflag: MZF3Eflag interacts with MZF3Eflu and is coimmunoprecipitated
MZF3E [4]
  recruitment of kinase activity to the zeta-chain (in vitro kinase assay after immunoprecipitation): resulted in the recruitment of kinase activity to the zeta-chain

## FK1012-B (diaminodecane-1,10 bridge) [FK1012B]
TAg-Jurkat cells; control experiment
  stimulation by the compound itself: not stimulatory by itself
TAg-Jurkat cells; ionomycin 1 μm + PMA 25 ng/ml, highest concentration 5 μg/ml
  mitogen activity: appears to augment mitogen activity slightly
